{"source": "patent US6635631B2", "about": "“Iron compounds, compositions, methods of making the same and uses thereof” (Vitra Pharmaceuticals, Ltd., priority 1995, dated 2003)", "key": {"[1]": {"assay": "pH and stability of solutions of the complexes (description)", "format": "physicochemical", "conditions": "for stability in solution: buffered pH of 7"}, "[2]": {"assay": "Effect on iron absorption in vivo of maltol as a diet supplement (liver iron)", "parameters": "species or system Male Wistar rats", "conditions": "for Liver Fe: rats fed maltol 50 mg/kg by gavage on alternate days, individual animals 1-6; for Liver Fe, MEAN: rats fed maltol 50 mg/kg", "method": "Male Wistar rats, housed in polyethylene cages, initially weighing 70-80 grams were given a normal powder diet and water ad libitum for two weeks prior to treatment with maltol by gavage. Provided the animal was showing normal growth, treatment by gavage with maltol at 50 mg/kg was commenced and continued on alternate days for a further two weeks. At the end of the experimental period the animals were sacrificed, the livers were excised, mass determined and the sub cellular fraction assayed for iron be electrothermal atomic absorption. […]. The iron content of the diet is 240 mg/kg of food and the daily consumption of the rats is approximately 20 g which contains 4.8 mg as iron. The content of maltol in the diet is approximately 10 mg which is a ratio of iron/maltol of 4.8/10.0 which is approximately a 1:1 molar ratio (actual 1:1 is 4.5/10/0).\nThe liver content and concentration of iron in the sub cellular fraction were compared with the control group fed the same diet over the month, but without maltol."}, "[3]": {"assay": "Solubility of iron complexes and mixtures (description)", "format": "physicochemical", "conditions": "for solubility relative to the 1:3 iron/hydroxypyrone molar ratio complex: 1:1 complexes"}, "[4]": {"assay": "Stability of the 1:1 molar ratio complex of iron and hydroxypyrone (visual precipitates, UV-V spectroscopy)", "format": "physicochemical", "method": "Various solutions of iron (III),and hydroxypyrone (ethylmaltol) were buffered to pH 7 with 50 mM morpholine propane sulphonate (MOPS) 50 mM, to pH 5 with sodium acetate (50 mM) and to pH 3 with glycine (50 mM). Iron III nitrate 9 H2O was used as a source of iron."}, "[5]": {"assay": "In vivo test in man: ICPOES analysis for iron in serum", "conditions": "for Iron concentration [Fe] (s.d.) in serum: man, with 10% excess maltol", "excerpt": "A composition of the invention comprising ferric maltol chloride ([FeM]^++Cl2−) ie. a 1:1 iron:hydroxypyrone complex together with a small (10%) excess of moltol (uncomplexed hydroxypyrone)."}, "[6]": {"system": "red blood cell", "assay": "Initial toxicity studies: red blood cell haemolysis", "format": "cell-based", "conditions": "liquid formulations"}, "[7]": {"assay": "Tests to determine optimum pH and molar ratios of iron:hydroxypyrone for synthesis of the 1:1 complex", "format": "physicochemical", "conditions": "pH 1-2", "method": "Further tests to determine the optimum pH and molar ratios of iron:hydroxypyrone for synthesis of the 1:1 complex were carried out using iron:hydroxypyrone (maltol) ratios of 1:1.1, 1:1.15 and 1:1.25. For each ratio concentrations of 1M, 0.1M and 0.01M were tested. In the tests iron was used in an aqueous form."}, "[8]": {"assay": "In vivo test in man: plasma iron concentration by ICP after oral ferric monomaltol citrate", "conditions": "time 0 mins (resting value)", "method": "A composition of the invention comprising ferric monomaltol citrate with 30 mg as iron in 5 ml of water was administered orally to a person who had fasted for 24 hours. The plasma iron concentration in the subject's bloodstream was determined by the ICP [inductively coupled plasma, (Machine Jobin Yvonne Modol 20)] technique which determines the emission spectra of elements by optical spectrometry when samples are subjected to a very hot flame. The technique is very sensitive and the accuracy and precision is less than +or −1%."}}, "note": "Several values for one entry are separate records, joined by “and”; a condition that tells them apart may be missing. Equal values may be shown once."}
{"smiles": "O=S(=O)([O-])[O-].[Fe+2]", "note": "[ferrous sulphate, reference compound]", "values": [{"measurement": "stability in solution", "setting": "[1]", "value": "precipitate very rapidly"}]}
{"smiles": "Cc1occc(=O)c1O", "note": "[Maltol, 3-hydroxy-2-methyl-4-pyrone]", "values": [{"measurement": "Liver Fe", "setting": "[2]; iron concentration, µg per g liver", "value": "118.8 µg/g and 113.2 µg/g and 87.3 µg/g and 165.8 µg/g and 149.2 µg/g and 123.4 µg/g"}, {"measurement": "Liver Fe", "setting": "[2]; total iron, mg per liver", "value": "1.44 mg/liver and 1.14 mg/liver and 0.86 mg/liver and 1.87 mg/liver and 1.69 mg/liver and 1.25 mg/liver"}, {"measurement": "Liver Fe, MEAN", "setting": "[2]; mean of 6 animals (control 1.06 ± 0.25)", "value": "1.38 ± 0.37", "unit": "mg/liver"}, {"measurement": "Liver Fe, MEAN", "setting": "[2]; mean of 6 animals (control 120.1 ± 30.2)", "value": "126.3 ± 27.7", "unit": "µg/g"}, {"measurement": "change in liver iron content versus control", "setting": "[2]; rats, maltol 50 mg/kg by gavage", "value": "small but significant increase"}]}
{"smiles": "CCc1occc(=O)c1[O-].[Fe+3]", "note": "[iron ethyl maltol]", "values": [{"measurement": "solubility relative to the 1:3 iron/hydroxypyrone molar ratio complex", "setting": "[3]", "value": "approximately ten times more soluble"}, {"measurement": "stability of solutions", "setting": "[4]; 0.1M, 0.01M and 0.001M, pH 3, 5 and 7", "value": "stable for up to two months"}, {"measurement": "formation of ferric triethylmaltol (1:3 complex)", "setting": "[4]; wide concentration range, up to pH 7", "value": "no ferric triethylmaltol is found even at pH 7"}]}
{"smiles": "Cc1occc(=O)c1[O-].[Cl-].[Cl-].[Fe+3]", "note": "[ferric maltol chloride]", "values": [{"measurement": "Iron concentration [Fe] (s.d.) in serum", "setting": "[5]; time 0 min, n = 2", "value": "1188.81 (17.57) ppb"}, {"measurement": "Iron concentration [Fe] (s.d.) in serum", "setting": "[5]; time 20 min, n = 2", "value": "1387.66 (63.08) ppb"}, {"measurement": "Iron concentration [Fe] (s.d.) in serum", "setting": "[5]; time 60 min, n = 2", "value": "1600.62 (115.83) ppb"}, {"measurement": "Iron concentration [Fe] (s.d.) in serum", "setting": "[5]; time 120 min, n = 1", "value": "1312.74 (0) (n = 1) ppb"}]}
{"smiles": "Cc1occc(=O)c1[O-].[Fe+3]", "note": "[ferric monomaltol]", "values": [{"measurement": "stability in solution", "setting": "[1]", "value": "stability for extended periods (for example six months)"}, {"measurement": "natural pH", "setting": "[1]; solution", "value": "approximately 2.8"}, {"measurement": "solubility relative to the 1:3 iron/hydroxypyrone molar ratio complex", "setting": "[3]", "value": "approximately ten times more soluble"}, {"measurement": "solubility", "setting": "[3]; pH 1-2", "value": "very soluble"}, {"measurement": "iron uptake", "setting": "[5]; in vivo, po", "value": "taken up well"}, {"measurement": "red blood cell haemolysis and breakdown", "setting": "[6]", "value": "do not cause red blood cell haemolysis and red blood cell breakdown"}, {"measurement": "proportion of the solution that comprises the 1:1 complex", "setting": "[7]", "value": "~80", "unit": "%"}]}
{"smiles": "Cc1occc(=O)c1[O-].O=C([O-])CC(O)(CC(=O)O)C(=O)[O-].[Fe+3]", "note": "[ferric monomaltol citrate]", "values": [{"measurement": "iron conc (plasma)", "setting": "[8]; 30 mg as iron in 5 ml water, fasted 24 hours", "value": 1.2, "unit": "µg/mL"}, {"measurement": "iron conc (plasma)", "setting": "[8]; 30 mg as iron", "value": 21.8, "unit": "µmol/L"}]}
